Assay [1] has as its system CHO cell line expressing the M1 muscarinic receptor. In words: Pooled two-target microfluidic screen: Fluo-4 green fluorescence response of CHO-M1 cells. In kind it is cell-based. The conditions noted are these: pooled with THP-1 cells, microfluidic channel, blue excitation light, FIG. 6. As for the experimental part:
(§1) A THP-1 cell line was labeled with Fura red. Both cell lines were pooled and introduced into microfluidic device having the channel structure illustrated in FIG. 5. The cells were flowed through the main channel of the device past a detector that excited the cells with blue excitation light. Green fluorescence was analyzed from the Fluo-4 labeled CHO cells to measure their response to the test compounds. The measurement of the different fluorescence was accomplished simultaneously through the use of appropriate beam splitters and filters in the optical train of the detector. Similarly, red fluorescence was measured from the Fura-red labeled THP-1 cells to measure their response. […] Similarly, different concentrations of UTP were also contacted with the cells flowing through the channel and the results for each system were plotted (FIG. 6C-D).

A further assay relates to THP-1 cell line. In words: Pooled two-target microfluidic screen: Fura red fluorescence response of THP-1 cells. In kind it is cell-based. The note with it: pooled with CHO-M1 cells, microfluidic channel, blue excitation light, FIG. 6C-6D. As for the experimental part:
as §1

As for `O=c1ccn([C@@H]2O[C@H](COP(=O)(O)OP(=O)(O)OP(=O)(O)O)[C@@H](O)[C@H]2O)c(=O)[nH]1` [UTP], the “green fluorescence response of Fluo-4 labeled CHO-M1 cells to different concentrations of test compound” value in assay [1] is listed as “dose dependent response”. Besides, the “red fluorescence response of Fura-red labeled THP-1 cells to different concentrations of test compound” value in the assay on THP-1 cell line is “dose dependent response”.

The values are drawn from US20010036626A1, “Screening assay methods and systems using target pooling” (priority 2000, published 2001).
